We go through 1 molecule from patent US20210345614A1, “APPLICATION OF 7-CARBOXYBENZO[1,2,3]THIADIAZOLE AMIDES AS PLANT STIMULANTS” (ADAM MICKIEWICZ UNIVERSITY FOUNDATION, priority 2015, published 2021).

This test concerns Pyrenophora teres. The experiment in a line: Field test on barley, fungal infection by Pyrenophora teres. Type of test: in vivo, Hordeum vulgare (spring). The protocol:
The test was conducted on a variety of barley Hordeum vulgare (spring). As such, six applications of the active substance solution was made. The study was conducted on fields of about 25 m^2 in quadruplicate for each combination tested. […] (with the addition of commercial adjuvant) followed by treatment with common fungicide (tebukonazole in formulation containing 250 g of active substance to be applied per 1 ha) in reducing infection of fungi Pyrenophora teres in barley (Hordeum vulgare (spring)) was performed. […] Six applications of the active substance BTHWA solution were made. As a control, one application of fungicide was performed at the time as indicated on the product label. The study was conducted on fields of about 25 m^2 in quadruplicate for each combination tested. […] The fungicide was applied in an amount of 33% its recommended dose (83 g/ha). Six applications of the active substance BTHWA solution were made. As a control, one application of fungicide was performed at the time as indicated on the product label. The study was conducted on fields of about 25 m^2 in quadruplicate for each combination tested.

Setting [1] is: Example 29: tebukonazole 1x 250 g/ha alone, or BTHWA 20 mg/L (six applications) + tebukonazole 1x 125 g/ha.
Where [2] appears, read: Example 30: tebukonazole 1x 250 g/ha alone, or BTHWA 20 mg/L (six applications) + tebukonazole 1x, table prints 125 g/ha, text 83 g/ha.

Turning to `CC(C)(C)C(O)(CCc1ccc(Cl)cc1)Cn1cncn1` (racemic) [tebukonazole, (RS)-1-(4-chlorophenyl)-4,4-dimethyl-3-(1H, 1,2,4-triazol-1-ylmethyl)pentan-3-ol], under setting [1], the “% efficacy” value turned out to be 90.87% and the “% of infection” value is recorded as 6.00%. Under setting [2], the “% efficacy” value is reported as 90.87% and the “% of infection” value stood at 6.00%.
